Read-outs that look alike come from different tables or passages of the source.
Tests used:
Type in all cases: in vivo
[1] = system: ducksalad (Heteranthera limosa); assay: Test B flooded paddy test
How it was run: (§1)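 Rice, umbrella sedge, ducksalad and barnyardgrass were grown to the 2-leaf stage, flooded to 3 cm, and compound was applied directly to the paddy water, with that depth kept throughout. After 13 to 15 days in the greenhouse, plants were visually rated against controls on a 0 (no effect) to 100 (complete control) scale.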

[2] = system: umbrella sedge (Cyperus difformis); assay: Test B flooded paddy test
How it was run: as §1

[3] = system: barnyardgrass (Echinochloa crus-galli); assay: Test B flooded paddy test
How it was run: as §1

rice (Oryza sativa) = assay: Test B flooded paddy test
How it was run: as §1

[4] = system: wheat (Triticum aestivum); assay: Test A pre-/postemergence plant response; settings: Triticum aestivum, 240 h; for plant injury at 125 g/ha: 125 g ai/ha; for plant injury at 500 g/ha: 500 g ai/ha
How it was run: (§2)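 Injury scores (0, no effect; 100, complete control) come from visual comparison with untreated controls roughly ten days post-treatment. Test chemicals in a surfactant-containing non-phytotoxic solvent were applied as a directed soil spray preemergence and to one- to two-leaf seedlings postemergence.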

[5] = system: velvetleaf (Abutilon theophrasti); assay: Test A pre-/postemergence plant response; settings: Abutilon theophrasti, 240 h; for pest or weed control at 125 g/ha: 125 g ai/ha; for pest or weed control at 500 g/ha: 500 g ai/ha
How it was run: as §2

corn (Zea mays) = assay: Test A pre-/postemergence plant response; settings: Zea mays, 240 h; for Corn plant response rating (crop injury, 0 = no effect, 100 = complete kill) at 125 g/ha: 125 g ai/ha
How it was run: as §2

[6] = system: barnyardgrass (Echinochloa crus-galli); assay: Test A pre-/postemergence plant response; settings: Echinochloa crus-galli, 240 h; for pest or weed control at 125 g/ha: 125 g ai/ha; for pest or weed control at 500 g/ha: 500 g ai/ha
How it was run: as §2

[7] = system: giant foxtail (Setaria faberii); assay: Test A pre-/postemergence plant response; settings: Setaria faberi, 240 h; for pest or weed control at 125 g/ha: 125 g ai/ha; for pest or weed control at 500 g/ha: 500 g ai/ha
How it was run: as §2

[8] = system: pigweed (Amaranthus retroflexus); assay: Test A pre-/postemergence plant response; settings: Amaranthus retroflexus, 240 h; for pest or weed control at 125 g/ha: 125 g ai/ha; for pest or weed control at 500 g/ha: 500 g ai/ha
How it was run: as §2

[9] = system: morningglory (Ipomoea spp.); assay: Test A pre-/postemergence plant response; settings: Ipomoea, 240 h; for pest or weed control at 125 g/ha: 125 g ai/ha; for pest or weed control at 500 g/ha: 500 g ai/ha
How it was run: as §2

[10] = system: large crabgrass (Digitaria sanguinalis); assay: Test A pre-/postemergence plant response; settings: Digitaria sanguinalis, 240 h; for pest or weed control at 125 g/ha: 125 g ai/ha; for pest or weed control at 500 g/ha: 500 g ai/ha
How it was run: as §2

[11] = Flood, 31 g ai/ha, scale 0 to 100 (0 no effect, 100 complete control)
[12] = pre-emergence, Preemergence, 0 to 100 scale, 0 = no effect, 100 = complete control, read-out: Plant response rating, Wheat
[13] = pre-emergence, Preemergence, 0 to 100 scale, 0 = no effect, 100 = complete control, read-out: Plant response rating, Velvetleaf
[14] = pre-emergence, Preemergence, 0 to 100 scale, 0 = no effect, 100 = complete control, read-out: Plant response rating, Barnyardgrass
[15] = pre-emergence, Preemergence, 0 to 100 scale, 0 = no effect, 100 = complete control, read-out: Plant response rating, Foxtail, Giant
[16] = pre-emergence, Preemergence, 0 to 100 scale, 0 = no effect, 100 = complete control, read-out: Plant response rating, Pigweed
[17] = pre-emergence, Preemergence, 0 to 100 scale, 0 = no effect, 100 = complete control, read-out: Plant response rating, Morningglory
[18] = pre-emergence, Preemergence, 0 to 100 scale, 0 = no effect, 100 = complete control, read-out: Plant response rating, Crabgrass, Large

## COCCn1c(-c2cc(F)cc(F)c2)ncc(C(=O)C2=C(O)C3CCC(C3)C2=O)c1=O (stereo not drawn) [Compound 243, 2-(3,5-difluorophenyl)-5-[(2-hydroxy-4-oxobicyclo[3.2.1]oct-2-en-3-yl)carbonyl]-3-(2-methoxyethyl)-4(3H)-pyrimidinone]
[1]; [11]
  Ducksalad plant response rating: 0
[1]; Heteranthera limosa, 360 h, 250 g ai/ha, flooded paddy test, visual rating on 0 to 100 scale (0 no effect, 100 complete control) after 13 to 15 days, read-out: Plant response rating, Flood, Ducksalad
  pest or weed control at 250 g/ha: 100%
[1]; Heteranthera limosa, 360 h, Flood (flooded paddy test), 62 g ai/ha, scale of 0 to 100 where 0 is no effect and 100 is complete control, 13 to 15 days, read-out: Plant response rating, Ducksalad
  pest or weed control at 62 g/ha: 85%
[1]; Heteranthera limosa, 360 h, Flood (flooded paddy test), 125 g ai/ha, scale 0 to 100, 0 is no effect, 100 is complete control, 13 to 15 days, read-out: Plant response rating, Ducksalad
  pest or weed control at 125 g/ha: 100%
[2]; Cyperus difformis, 360 h, 250 g ai/ha, flooded paddy test, visual rating on 0 to 100 scale (0 no effect, 100 complete control) after 13 to 15 days, read-out: Plant response rating, Flood, Sedge, Umbrella
  pest or weed control at 250 g/ha: 100%
[2]; Cyperus difformis, 360 h, Flood (flooded paddy test), 62 g ai/ha, scale of 0 to 100 where 0 is no effect and 100 is complete control, 13 to 15 days, read-out: Plant response rating, Sedge, Umbrella
  pest or weed control at 62 g/ha: 90%
[2]; Cyperus difformis, 360 h, Flood (flooded paddy test), 125 g ai/ha, scale 0 to 100, 0 is no effect, 100 is complete control, 13 to 15 days, read-out: Plant response rating, Sedge, Umbrella
  pest or weed control at 125 g/ha: 100%
[2]; [11]
  Sedge, Umbrella plant response rating: 0
[3]; Echinochloa crus-galli, 360 h, 250 g ai/ha, flooded paddy test, visual rating on 0 to 100 scale (0 no effect, 100 complete control) after 13 to 15 days, read-out: Plant response rating, Flood, Barnyardgrass
  pest or weed control at 250 g/ha: 85%
[3]; Echinochloa crus-galli, 360 h, Flood (flooded paddy test), 62 g ai/ha, scale of 0 to 100 where 0 is no effect and 100 is complete control, 13 to 15 days, read-out: Plant response rating, Barnyardgrass
  pest or weed control at 62 g/ha: 30%
[3]; Echinochloa crus-galli, 360 h, Flood (flooded paddy test), 125 g ai/ha, scale 0 to 100, 0 is no effect, 100 is complete control, 13 to 15 days, read-out: Plant response rating, Barnyardgrass
  pest or weed control at 125 g/ha: 75%
[3]; [11]
  Barnyardgrass plant response rating: 0
Rice (Oryza sativa); [11]
  Rice plant response rating: 45
Rice (Oryza sativa); Oryza sativa, 250 g ai/ha, flooded paddy test, visual rating on 0 to 100 scale (0 no effect, 100 complete control) after 13 to 15 days, read-out: Plant response rating, Flood, Rice
  plant injury at 250 g/ha: 75%
Rice (Oryza sativa); Oryza sativa, Flood (flooded paddy test), 62 g ai/ha, scale of 0 to 100 where 0 is no effect and 100 is complete control, 13 to 15 days, read-out: Plant response rating, Rice
  plant injury at 62 g/ha: 60%
Rice (Oryza sativa); Oryza sativa, Flood (flooded paddy test), 125 g ai/ha, scale 0 to 100, 0 is no effect, 100 is complete control, 13 to 15 days, read-out: Plant response rating, Rice
  plant injury at 125 g/ha: 95%
[4]; post-emergence, Postemergence, 0 to 100 scale where 0 is no effect and 100 is complete control, read-out: Plant response rating, Wheat
  plant injury at 125 g/ha: 70%
[4]; post-emergence, Postemergence, visual injury, 0 to 100 scale (0 no effect, 100 complete control), approx. ten days, read-out: Wheat plant response rating
  plant injury at 500 g/ha: 90%
[4]; [12]
  plant injury at 125 g/ha: 30%
  plant injury at 500 g/ha: 70%
[5]; post-emergence, Postemergence, 0 to 100 scale where 0 is no effect and 100 is complete control, read-out: Plant response rating, Velvetleaf
  pest or weed control at 125 g/ha: 100%
[5]; post-emergence, Postemergence, visual injury, 0 to 100 scale (0 no effect, 100 complete control), approx. ten days, read-out: Velvetleaf plant response rating
  pest or weed control at 500 g/ha: 100%
[5]; [13]
  pest or weed control at 125 g/ha: 90%
  pest or weed control at 500 g/ha: 100%
Corn (Zea mays); post-emergence, Postemergence, 0 to 100 scale where 0 is no effect and 100 is complete control
  Corn plant response rating (crop injury, 0 = no effect, 100 = complete kill) at 125 g/ha: 70%
Corn (Zea mays); post-emergence, Postemergence, 500 g ai/ha, visual injury, 0 to 100 scale (0 no effect, 100 complete control), approx. ten days, read-out: Corn plant response rating
  plant injury at 500 g/ha: 90%
Corn (Zea mays); pre-emergence, Preemergence, 0 to 100 scale, 0 = no effect, 100 = complete control
  Corn plant response rating (crop injury, 0 = no effect, 100 = complete kill) at 125 g/ha: 30%
Corn (Zea mays); pre-emergence, Preemergence, 500 g ai/ha, 0 to 100 scale, 0 = no effect, 100 = complete control
  Corn plant response rating (crop injury, 0 = no effect, 100 = complete kill) at 500 g/ha: 60%
[6]; post-emergence, Postemergence, 0 to 100 scale where 0 is no effect and 100 is complete control, read-out: Plant response rating, Barnyardgrass
  pest or weed control at 125 g/ha: 100%
[6]; post-emergence, Postemergence, visual injury, 0 to 100 scale (0 no effect, 100 complete control), approx. ten days, read-out: Barnyardgrass plant response rating
  pest or weed control at 500 g/ha: 100%
[6]; [14]
  pest or weed control at 125 g/ha: 70%
  pest or weed control at 500 g/ha: 100%
[7]; post-emergence, Postemergence, 0 to 100 scale where 0 is no effect and 100 is complete control, read-out: Plant response rating, Foxtail, Giant
  pest or weed control at 125 g/ha: 100%
[7]; post-emergence, Postemergence, visual injury, 0 to 100 scale (0 no effect, 100 complete control), approx. ten days, read-out: Foxtail, Giant plant response rating
  pest or weed control at 500 g/ha: 100%
[7]; [15]
  pest or weed control at 125 g/ha: 90%
  pest or weed control at 500 g/ha: 100%
[8]; post-emergence, Postemergence, 0 to 100 scale where 0 is no effect and 100 is complete control, read-out: Plant response rating, Pigweed
  pest or weed control at 125 g/ha: 100%
[8]; post-emergence, Postemergence, visual injury, 0 to 100 scale (0 no effect, 100 complete control), approx. ten days, read-out: Pigweed plant response rating
  pest or weed control at 500 g/ha: 100%
[8]; [16]
  pest or weed control at 125 g/ha: 100%
  pest or weed control at 500 g/ha: 100%
[9]; post-emergence, Postemergence, 0 to 100 scale where 0 is no effect and 100 is complete control, read-out: Plant response rating, Morningglory
  pest or weed control at 125 g/ha: 100%
[9]; post-emergence, Postemergence, visual injury, 0 to 100 scale (0 no effect, 100 complete control), approx. ten days, read-out: Morningglory plant response rating
  pest or weed control at 500 g/ha: 100%
[9]; [17]
  pest or weed control at 125 g/ha: 70%
  pest or weed control at 500 g/ha: 90%
[10]; post-emergence, Postemergence, 0 to 100 scale where 0 is no effect and 100 is complete control, read-out: Plant response rating, Crabgrass, Large
  pest or weed control at 125 g/ha: 90%
[10]; post-emergence, Postemergence, visual injury, 0 to 100 scale (0 no effect, 100 complete control), approx. ten days, read-out: Crabgrass, Large plant response rating
  pest or weed control at 500 g/ha: 90%
[10]; [18]
  pest or weed control at 125 g/ha: 100%
  pest or weed control at 500 g/ha: 100%
